{"source": "patent US12297163B2", "about": "“Glycerol derivative, preparation method therefor, and immunomodulator comprising same as effective ingredient” (ENZYCHEM LIFESCIENCES CORPORATION, priority 2018, dated 2025)", "molecules": {"B1": {"name": "IL-4: IL-4 used to induce STAT6 activity in A549 cells (protein, UniProt P05112 25-153, looked up)", "Interleukin-4": "HKCDITLQEIIKTLNSLTEQKTLCTELTVTDIFAASKNTTEKETFCRAATVLRQFYSHHEKDTRCLGATAQQFHRHKQLIRFLKRLDRNLWGLAGLNSCPVKEANQSTLENFLERLKTIMREKYSKCSS"}}, "key": {"[1]": {"test_system": "STAT3", "assay": "IL-6-induced STAT3 activity, SEAP expression in HEK-Blue IL-6 cells", "type": "cell-based", "conditions": "for STAT3 activity SEAP expression(%) (average ± deviation): negative control = 100", "procedure": "Two experiments were conducted as a method of confirming STAT3 activity. First, HEK-Blue™ IL-6 cells were used to confirm the degree of activity by STAT3-induced SEAP (secreted embryonic alkaline phosphatase) expression. Second, this is a method to check the degree of STAT3 activity by injecting the pGL4.47 [luc2P/SIE/Hygro] vector containing the sis-inducible element that binds to STAT3 into RAW264.7 cells. Table 4 below confirmed the STAT3 activity inhibitory ability of the derivative compound of the present invention using the first method.\nIn DMEM (Hyclone, Thermo Scientific) medium to which 10% Fetal Bovine Serum was added, HEK-Blue™ IL-6 cells were cultured at a concentration of 1×10^5 cells/ml, and the cells were maintained in a 5% CO2 humidified incubator at 37° C., and cultured. The cultured HEK-Blue™ IL-6 cells were inoculated by 1×10^5 cells/ml, and treat with a glycerol derivative compounds of the type shown in Table 3 below in the culture solution for 1 hour, and then IL-6 (5 ng/ml) was further incubated for 24 hours for STAT3 activity. Thereafter, the culture supernatant was collected for each well and centrifuged (at 3000 rpm, 5 minutes) to recover the supernatant. The SEAP expression level in the recovered supernatant was mixed with Quanti blue reagent and the supernatant at a ratio of 1:10 and left at 37° C. for about 30 minutes. Then, the SEAP concentration was confirmed at 650 nm wavelength using a spectrophotometer, and the results thereof are shown in Table 4 below."}, "[2]": {"test_system": "HL-60 cells", "assay": "Migration of HL-60 cell line using Transwell", "type": "cell-based, human", "procedure": "Then, the culture solution was treated with a glycerol derivative compounds of the type shown in Table 7 below for 1 hour and then was treated with Gemcitabine (2 μg/ml) of a cell stimulator, and subsequent further incubation was conducted for 24 hours. Thereafter 1.5 ml of the culture supernatant was collected for each well and centrifuged (at 3000 rpm, 5 minutes) to recover the supernatant. […] The day before Transmigration assay was carried out, a 1× Lamin I solution was treated in the upper Invasion Chamber and coated. […] Thereafter the upper chamber was removed, and the cells were attached to the bottom of the lower chamber by a centrifuge, and then the supernatant was removed. Cell dissociation/Calcein-AM solution was added and reacted for 1 hour. Then, the value obtained using a fluorescence spectroscopy was calculated by converting the number of cells."}, "[3]": {"test_system": "IL-6", "assay": "LPS-induced IL-6 secretion in RAW264.7 cells (ELISA)", "type": "cell-based, mouse", "conditions": "for IL-6 concentration (average ± deviation): then LPS 1 μg/ml, 24 hours", "procedure": "In DMEM (Hyclone, Thermo Scientific) medium to which 10% Fetal Bovine Serum was added, RAW264.7 cells, a mouse macrophage family, were suspended at a concentration of 1×10^5 cells/ml, and the cells were maintained in a 5% CO2 humidified incubator at 37° C., and cultured. The cultured RAW264.7 cells were inoculated into a 48 well plate by 5×10^4 cells/ml and stabilized for 15 hours. Then, the culture solution was treated with a glycerol derivative compounds of the type shown in Table 2 and 3 below for 1 hour and then was treated with 1 μg/ml of Lipopolysaccaride (LPS) of a cell stimulator, and subsequent further incubation was conducted for 24 hours. Thereafter 0.5 ml of the culture supernatant was collected for each well and centrifuged (at 3000 rpm, 5 minutes) to recover the supernatant. The IL-6 level in the recovered supernatant was measured according to the manual provided by the Mouse IL-6 ELISA set (BD Biosciences). The day before ELISA was carried out, the IL-6 capture antibody was diluted in phosphate buffered saline, coated on a microwell, and then stored at 4° C. overnight. Each well was washed three times with a washing buffer solution and then blocked with 2% Bovine Serum Albumin (BSA) for 1 hour at room temperature. After washing with buffer solution three times, 100 μl of sample was dispensed into each well and left at room temperature for 2 hours. Detection antibody which was washed 3 times with washing buffer solution and diluted was dispensed into each well and allowed to react at room temperature for 1 hour and left at room temperature for 1 hour. Thereafter, the secondary HRP conjugated antibody was reacted at room temperature for 30 minutes, washed three times with a washing buffer solution, and treated with 50 μl of stop solution for each well, and then the optical density was measured at 450 nm with an ELISA microplate leader."}, "[4]": {"test_system": "STAT3", "assay": "STAT3 activity, pGL4.47 [luc2P/SIE/Hygro] luciferase reporter in RAW264.7 cells", "type": "cell-based, mouse", "procedure": "Thereafter, the culture supernatant was removed for each well, and the remaining cells were lysed with a cell lysis buffer, and then cell lysate was recovered. 90 μl of luciferase reagent was mixed with 10 μl of the recovered cell lysate, and the degree of fluorescence was confirmed using a luminometer."}, "[5]": {"test_system": "IL-4", "assay": "PKC activator-induced IL-4 secretion in EL-4 cells (ELISA)", "type": "cell-based, mouse", "conditions": "Table 11, sample 100 μg/ml for 2 hours, then PKC activator, 18 hours", "procedure": "Thereafter 0.5 ml of the culture supernatant was collected for each well and centrifuged (at 3000 rpm, 5 minutes) to recover the supernatant. […] Thereafter, the secondary HRP conjugated antibody was reacted at room temperature for 30 minutes, washed three times with a washing buffer solution, and treated with 50 μl of stop solution for each well, and then the optical density was measured at 450 nm with an ELISA microplate leader."}, "[6]": {"test_system": "STAT6", "assay": "IL-4-induced STAT6 activity, pGL4-STAT6 luciferase reporter in A549 cells", "type": "cell-based", "procedure": "In DMEM (Dulbecco Modified Eagle Medium, Hyclone, Thermo Scientific) medium to which 10% Fetal Bovine Serum was added, A549 cells were subcultured at a concentration of 1×10^5 cells/ml, and the cells were maintained in a 5% CO2 humidified incubator at 37° C., and cultured. The cultured A549 cells were inoculated into a 48 well plate by 1×10^5 cells/ml and stabilized for 18 hours. Thereafter, pGL4-STAT6 reporter vector containing a STAT6 binding promoter portion was mixed with Attractene to induce complex formation at room temperature for 15 minutes. This complex was treated with the cells and then further incubated for 24 hours. Thereafter, the culture solution was treated with a glycerol derivative compounds of the type shown in Table 8 and Table 9 below for 1 hour in the culture solution, and then IL-4 (2 ng/ml or 10 ng/ml) was further incubated for 20 hours for STAT6 activity. Thereafter, the culture supernatant was removed for each well, and the remaining cells were lysed with a cell lysis buffer, and then cell lysate was recovered. 90 μl of luciferase reagent was mixed with 10 μl of the recovered cell lysate, and the degree of fluorescence was confirmed using a luminometer."}, "[7]": {"test_system": "CXCL8 (IL-8)", "assay": "CXCL8 (IL-8) expression in Gemcitabine-stimulated THP-1 cells (ELISA)", "type": "cell-based, human", "procedure": "Thereafter 1.5 ml of the culture supernatant was collected for each well and centrifuged (at 3000 rpm, 5 minutes) to recover the supernatant."}}, "data": [{"molecule": "CCCCC/C=C\\C/C=C\\CCCCCCCC(=O)OC(COC(C)=O)COC(=O)CCCCCCCCCCCCCCC", "note": "(stereo not drawn) [EC-18, 1-palmitoyl-2-linoleoyl-3-acetylglycerol]", "values": [{"measurement": "decrease of STAT3 activity compared to the IL-6-treated group", "setting": "[1]", "result": "about 25%"}, {"measurement": "STAT3 activity SEAP expression(%) (average ± deviation)", "setting": "[1]; sample 100 μg/ml for 1 hour, then IL-6 5 ng/ml, 24 hours", "result": "173.0 ± 7.9", "unit": "%"}, {"measurement": "reduction of HL-60 cell migration, result in words", "setting": "[2]; Transwell, comparison with negative control group or EC-18 (PLAG)", "result": "reduced to a degree similar to that of the negative control group"}, {"measurement": "decrease of IL-6 expression/secretion compared to the LPS-treated group", "setting": "[3]; LPS-stimulated", "result": "about 30%"}, {"measurement": "IL-6 concentration (average ± deviation)", "setting": "[3]; Table 2, sample 100 μg/ml for 1 hour", "result": "0.194 ± 0.011", "unit": "ng/mL"}, {"measurement": "IL-6 concentration (average ± deviation)", "setting": "[3]; Table 3, sample 100 μg/ml for 1 hour", "result": "1.159 ± 0.036", "unit": "ng/mL"}, {"measurement": "decrease of STAT3 activity", "setting": "[4]; LPS-treated", "result": "about 50%"}, {"measurement": "STAT3 activity_Luciferase activity (average ± deviation)", "setting": "[4]; sample 100 μg/ml for 1 hour, then LPS 1 μg/ml, 18 hours, negative control = 100.00", "result": "393.64 ± 46.12"}, {"measurement": "IL-4 concentration (average ± deviation)", "setting": "[5]", "result": "189.8 ± 38.5", "unit": "pg/µL"}, {"measurement": "reduction of STAT6 activity", "setting": "[6]; IL-4-treated", "result": "about 50%"}, {"measurement": "STAT6 activity_Luciferase activity (average ± deviation)", "setting": "[6]; Table 9, sample 100 μg/ml for 1 hour, then IL-4 10 ng/ml, 20 hours", "result": "1281.5 ± 26.1"}, {"measurement": "reduction of CXCL8 expression", "setting": "[7]", "result": "about 20%"}]}, {"molecule": "Nc1ccn([C@@H]2O[C@H](CO)[C@@H](O)C2(F)F)c(=O)n1", "note": "[Gemcitabine]", "values": [{"measurement": "increase of neutrophil cell migration compared to the negative control group", "setting": "[2]; Gemcitabine-treated THP-1 cells", "result": "increased by about twice"}]}, {"molecule": "IL-6: IL-6 cytokine used to induce STAT3 activity", "values": [{"measurement": "STAT3 activity SEAP expression(%) (average ± deviation)", "setting": "[1]; IL-6 5 ng/ml alone", "result": "228.8 ± 17.0", "unit": "%"}]}, {"molecule": "B1", "values": [{"measurement": "STAT6 activity_Luciferase activity (average ± deviation)", "setting": "[6]; Table 9, IL-4 alone, concentration printed 10", "result": "2134.5 ± 17.6"}]}]}
